Experimental findings from ChEMBL document CHEMBL5303763, “Data for DCP probe BI-3802” (2023) are described below.

Data set [1] has as its target Mitogen-activated protein kinase 8 (Homo sapiens) (UniProt P45983). Kind of data set: MAPK8 Invitrogen Lab (UK) kinase screen (BI). The settings on record: Compound concentration 1.0 uM.
In data set [2] the target is Platelet-derived growth factor receptor alpha (Homo sapiens) (UniProt P16234). Briefly: PDGFRA Invitrogen Lab (UK) kinase screen (BI). The settings on record: Compound concentration 1.0 uM.
For data set [3], the target named is Focal adhesion kinase 1 (Homo sapiens) (UniProt Q05397). Kind of data set: PTK2 Invitrogen Lab (UK) kinase screen (BI). Conditions: Compound concentration 1.0 uM.
For data set [4], the target named is MAP kinase-activated protein kinase 2 (Homo sapiens) (UniProt P49137). Kind of data set: MAPKAPK2 Invitrogen Lab (UK) kinase screen (BI). The settings on record: Compound concentration 1.0 uM.
Data set [5] deals with 5-hydroxytryptamine receptor 1B (Rattus norvegicus) (UniProt P28564). Briefly: 5HT1B/R Eurofins SafetyScreen44 (BI). Conditions: Compound concentration 10.0 uM.
Data set [6] deals with Myosin light chain kinase 2, skeletal/cardiac muscle (Homo sapiens) (UniProt Q9H1R3). Briefly: MYLK2 Invitrogen Lab (UK) kinase screen (BI). Conditions: Compound concentration 1.0 uM.
In data set [7] the target is 5-hydroxytryptamine receptor 1D (Homo sapiens) (UniProt P28221). Conditions: Compound concentration 10.0 uM.
In data set [8] the target is Sigma non-opioid intracellular receptor 1 (Homo sapiens) (UniProt Q99720). The settings on record: Compound concentration 10.0 uM.
Data set [9] has as its target Tyrosine-protein kinase Lyn (Homo sapiens) (UniProt P07948). Kind of data set: LYN A Invitrogen Lab (UK) kinase screen (BI). Conditions: Compound concentration 1.0 uM.
Data set [10] deals with Ribosomal protein S6 kinase beta-1 (Homo sapiens) (UniProt P23443). Kind of data set: RPS6KB1 Invitrogen Lab (UK) kinase screen (BI). Conditions: Compound concentration 1.0 uM.
Data set [11] deals with High affinity nerve growth factor receptor (Homo sapiens) (UniProt P04629). Kind of data set: NTRK1 Invitrogen Lab (UK) kinase screen (BI). Conditions: Compound concentration 1.0 uM.
For data set [12], the system named is Voltage-gated K+ channel Kv1 (Rattus norvegicus). Briefly: K+/VOLT/RA Eurofins SafetyScreen44 (BI). Conditions: rat brain, probe [125I]a-dendrotoxin, read-out: % Ctrl.
For data set [13], the target named is Dual specificity mitogen-activated protein kinase kinase 2 (Homo sapiens) (UniProt P36507). Kind of data set: MAP2K2 Invitrogen Lab (UK) kinase screen (BI). The settings on record: Compound concentration 1.0 uM.
Data set [14] concerns the target Histamine H1 receptor (Homo sapiens) (UniProt P35367). Conditions: Compound concentration 10.0 uM.
Data set [15] has as its target cAMP-dependent protein kinase catalytic subunit alpha (Homo sapiens) (UniProt P17612). Briefly: PRKACA Invitrogen Lab (UK) kinase screen (BI). Conditions: Compound concentration 1.0 uM.
Data set [16] has as its target Beta-3 adrenergic receptor (Homo sapiens) (UniProt P13945). The settings on record: Compound concentration 10.0 uM.
The target of data set [17] is Serine/threonine-protein kinase Chk2 (Homo sapiens) (UniProt O96017). Briefly: CHEK2 Invitrogen Lab (UK) kinase screen (BI). The settings on record: Compound concentration 1.0 uM.
In data set [18] the target is Cyclin-dependent kinase 2/cyclin A (Homo sapiens) (UniProt P24941+P20248+P78396). Kind of data set: CDK2/CYCLINA Invitrogen Lab (UK) kinase screen (BI). The format is protein-complex assay. Conditions: Compound concentration 1.0 uM.
The target of data set [19] is Alpha-2B adrenergic receptor (Homo sapiens) (UniProt P18089). The settings on record: Compound concentration 10.0 uM.
Data set [20] has as its target Histamine H3 receptor (Homo sapiens) (UniProt Q9Y5N1). Conditions: Compound concentration 10.0 uM.
In data set [21] the target is Tyrosine-protein kinase ABL1 (Homo sapiens) (UniProt P00519). Briefly: ABL1 Invitrogen Lab (UK) kinase screen (BI). Conditions: Compound concentration 1.0 uM.
In data set [22] the target is Vascular endothelial growth factor receptor 2 (Homo sapiens) (UniProt P35968). Briefly: KDR Invitrogen Lab (UK) kinase screen (BI). The settings on record: Compound concentration 1.0 uM.
For data set [23], the target named is B-cell lymphoma 6 protein (Homo sapiens, UniProt P41182). Kind of data set: BCL6::NCOR LUMIER in cells.
The target of data set [24] is Aurora kinase B (Homo sapiens) (UniProt Q96GD4). Kind of data set: AURKB Invitrogen Lab (UK) kinase screen (BI). The settings on record: Compound concentration 1.0 uM.
The target in data set [25] is Cannabinoid receptor 1 (Homo sapiens) (UniProt P21554). Kind of data set: CB1/CENTR/H Eurofins SafetyScreen44 (BI). Conditions: Compound concentration 10.0 uM.
The target of data set [26] is Mitogen-activated protein kinase 1 (Homo sapiens) (UniProt P28482). Briefly: MAPK1 Invitrogen Lab (UK) kinase screen (BI). The settings on record: Compound concentration 1.0 uM.
The target in data set [27] is Alpha-1D adrenergic receptor (Homo sapiens) (UniProt P25100). Conditions: Compound concentration 10.0 uM.
In data set [28] the target is Dual specificity protein kinase CLK1 (Homo sapiens) (UniProt P49759). Briefly: CLK1 Invitrogen Lab (UK) kinase screen (BI). The settings on record: Compound concentration 1.0 uM.
Data set [29] addresses Muscarinic acetylcholine receptor M4 (Homo sapiens) (UniProt P08173). Conditions: Compound concentration 10.0 uM.
Data set [30] concerns the target D(1A) dopamine receptor (Homo sapiens) (UniProt P21728). The settings on record: Compound concentration 10.0 uM.
Data set [31] concerns the target D(4) dopamine receptor (Homo sapiens) (UniProt P21917). The settings on record: Compound concentration 10.0 uM.
Data set [32] addresses T1, Muscarinic acetylcholine receptor M2 (Homo sapiens) (UniProt P08172).
T1 sequence (whole entry): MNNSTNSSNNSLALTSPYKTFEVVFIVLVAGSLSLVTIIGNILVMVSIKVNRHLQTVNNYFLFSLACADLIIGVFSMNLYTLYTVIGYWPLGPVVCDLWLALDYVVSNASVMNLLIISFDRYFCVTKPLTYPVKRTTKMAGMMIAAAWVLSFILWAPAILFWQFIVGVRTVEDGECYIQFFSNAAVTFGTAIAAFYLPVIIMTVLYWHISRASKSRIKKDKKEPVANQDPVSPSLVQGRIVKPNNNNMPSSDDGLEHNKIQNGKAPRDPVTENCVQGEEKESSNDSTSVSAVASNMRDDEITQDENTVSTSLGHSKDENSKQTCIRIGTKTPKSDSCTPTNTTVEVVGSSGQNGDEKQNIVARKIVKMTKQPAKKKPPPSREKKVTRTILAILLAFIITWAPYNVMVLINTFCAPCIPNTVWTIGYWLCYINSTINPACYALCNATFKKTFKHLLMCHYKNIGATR
Conditions: Compound concentration 10.0 uM.

Data set [33] has as its target Dual specificity mitogen-activated protein kinase kinase 1 (Homo sapiens) (UniProt Q02750). Briefly: MAP2K1 Invitrogen Lab (UK) kinase screen (BI). Conditions: Compound concentration 1.0 uM.
The target of data set [34] is Mitogen-activated protein kinase 3 (Homo sapiens) (UniProt P27361). Briefly: MAPK3 Invitrogen Lab (UK) kinase screen (BI). The settings on record: Compound concentration 1.0 uM.
Data set [35] deals with Sodium-dependent serotonin transporter (Homo sapiens) (UniProt P31645). Conditions: Compound concentration 10.0 uM.
In data set [36] the target is B-cell CLL/lymphoma 6 member B protein (Homo sapiens, UniProt Q8N143). Kind of data set: SPR (BCL6B), Ontario institute for cancer research.
Data set [37] concerns the target Cannabinoid receptor 1 (Homo sapiens) (UniProt P21554). Kind of data set: CB1(HU)_AGON Eurofins SafetyScreen44 (BI). The settings on record: filed as agonist; Compound concentration 10.0 uM.
Data set [38] concerns the target Zinc finger and BTB domain-containing protein 17 (Homo sapiens, UniProt Q13105). Kind of data set: SPR (ZBTB17), Ontario institute for cancer research.

Active and inactive are the calls of the source. The calls are words filed in the database; no cut-off is given here.

Sequence of Sodium-dependent serotonin transporter (Homo sapiens) (P31645 whole entry, looked up): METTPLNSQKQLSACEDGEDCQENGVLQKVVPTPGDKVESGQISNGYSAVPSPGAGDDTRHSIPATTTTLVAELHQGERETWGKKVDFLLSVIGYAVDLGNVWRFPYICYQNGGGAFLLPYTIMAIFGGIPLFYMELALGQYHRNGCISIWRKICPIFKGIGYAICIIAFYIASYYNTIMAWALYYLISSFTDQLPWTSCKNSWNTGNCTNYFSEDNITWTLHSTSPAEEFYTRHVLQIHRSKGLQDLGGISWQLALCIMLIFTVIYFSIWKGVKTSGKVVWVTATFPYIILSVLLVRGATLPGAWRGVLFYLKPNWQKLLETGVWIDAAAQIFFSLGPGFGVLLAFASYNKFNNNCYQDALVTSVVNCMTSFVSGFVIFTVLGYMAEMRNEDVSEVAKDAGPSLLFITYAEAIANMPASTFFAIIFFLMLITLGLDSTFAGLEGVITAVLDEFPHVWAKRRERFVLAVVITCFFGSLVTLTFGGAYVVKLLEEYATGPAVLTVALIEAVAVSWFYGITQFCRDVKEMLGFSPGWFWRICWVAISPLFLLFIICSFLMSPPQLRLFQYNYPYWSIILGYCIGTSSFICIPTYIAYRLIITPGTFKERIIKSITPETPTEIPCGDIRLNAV
Sequence of Beta-3 adrenergic receptor (Homo sapiens) (P13945 whole entry, looked up): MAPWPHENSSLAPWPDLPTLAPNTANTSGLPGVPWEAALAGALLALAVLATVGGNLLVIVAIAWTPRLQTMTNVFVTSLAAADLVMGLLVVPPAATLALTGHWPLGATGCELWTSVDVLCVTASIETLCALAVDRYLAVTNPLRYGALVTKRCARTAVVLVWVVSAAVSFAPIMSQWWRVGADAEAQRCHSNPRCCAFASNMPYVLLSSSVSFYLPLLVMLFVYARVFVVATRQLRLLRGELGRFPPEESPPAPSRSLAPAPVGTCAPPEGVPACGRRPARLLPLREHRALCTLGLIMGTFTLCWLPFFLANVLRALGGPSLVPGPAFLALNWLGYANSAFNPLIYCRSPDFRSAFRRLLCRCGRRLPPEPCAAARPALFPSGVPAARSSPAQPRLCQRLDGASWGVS
Sequence of Sigma non-opioid intracellular receptor 1 (Homo sapiens) (Q99720 whole entry): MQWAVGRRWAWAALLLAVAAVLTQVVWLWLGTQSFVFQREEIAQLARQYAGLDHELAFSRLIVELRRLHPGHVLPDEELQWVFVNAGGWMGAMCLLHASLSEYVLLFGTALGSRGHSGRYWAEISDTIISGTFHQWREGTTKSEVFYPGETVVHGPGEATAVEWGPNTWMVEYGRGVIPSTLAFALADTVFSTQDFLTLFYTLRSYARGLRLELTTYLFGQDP
Sequence of Muscarinic acetylcholine receptor M4 (Homo sapiens) (P08173 whole entry): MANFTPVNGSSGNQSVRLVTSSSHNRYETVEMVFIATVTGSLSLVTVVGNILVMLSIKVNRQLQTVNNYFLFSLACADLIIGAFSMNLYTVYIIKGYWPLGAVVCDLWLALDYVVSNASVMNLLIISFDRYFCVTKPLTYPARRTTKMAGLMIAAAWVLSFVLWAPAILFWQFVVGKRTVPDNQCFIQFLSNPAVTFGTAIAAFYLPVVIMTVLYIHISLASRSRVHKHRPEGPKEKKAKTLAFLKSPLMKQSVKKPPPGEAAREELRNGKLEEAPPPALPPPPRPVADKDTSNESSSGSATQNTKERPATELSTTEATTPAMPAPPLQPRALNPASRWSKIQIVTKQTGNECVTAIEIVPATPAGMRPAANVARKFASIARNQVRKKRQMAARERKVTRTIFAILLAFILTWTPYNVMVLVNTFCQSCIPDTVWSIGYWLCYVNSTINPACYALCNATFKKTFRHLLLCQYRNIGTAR
Sequence of Histamine H1 receptor (Homo sapiens) (P35367 whole entry): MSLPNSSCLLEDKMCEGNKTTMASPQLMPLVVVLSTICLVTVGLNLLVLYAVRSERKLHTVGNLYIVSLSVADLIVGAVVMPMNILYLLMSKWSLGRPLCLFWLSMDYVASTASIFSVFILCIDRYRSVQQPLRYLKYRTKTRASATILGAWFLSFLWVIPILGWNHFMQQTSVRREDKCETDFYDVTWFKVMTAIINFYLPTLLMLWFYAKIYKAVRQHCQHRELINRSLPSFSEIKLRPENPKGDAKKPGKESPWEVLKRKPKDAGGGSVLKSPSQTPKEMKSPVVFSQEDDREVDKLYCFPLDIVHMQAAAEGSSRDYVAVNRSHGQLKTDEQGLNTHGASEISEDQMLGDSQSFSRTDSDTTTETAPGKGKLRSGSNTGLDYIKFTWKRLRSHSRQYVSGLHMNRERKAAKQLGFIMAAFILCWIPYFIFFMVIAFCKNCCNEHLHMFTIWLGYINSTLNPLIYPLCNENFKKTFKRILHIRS
Sequence of D(1A) dopamine receptor (Homo sapiens) (P21728 whole entry): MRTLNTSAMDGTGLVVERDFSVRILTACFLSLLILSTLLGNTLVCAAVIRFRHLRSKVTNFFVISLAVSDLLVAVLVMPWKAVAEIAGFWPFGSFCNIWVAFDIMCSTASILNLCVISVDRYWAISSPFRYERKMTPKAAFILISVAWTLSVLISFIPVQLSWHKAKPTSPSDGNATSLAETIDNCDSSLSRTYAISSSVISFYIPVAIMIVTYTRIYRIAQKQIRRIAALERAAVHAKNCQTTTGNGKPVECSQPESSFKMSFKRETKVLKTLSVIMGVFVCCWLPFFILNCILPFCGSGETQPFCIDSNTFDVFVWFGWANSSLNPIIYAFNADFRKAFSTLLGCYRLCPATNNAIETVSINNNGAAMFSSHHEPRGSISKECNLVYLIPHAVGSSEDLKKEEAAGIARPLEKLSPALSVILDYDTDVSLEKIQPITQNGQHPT
Sequence of Histamine H3 receptor (Homo sapiens) (Q9Y5N1 whole entry): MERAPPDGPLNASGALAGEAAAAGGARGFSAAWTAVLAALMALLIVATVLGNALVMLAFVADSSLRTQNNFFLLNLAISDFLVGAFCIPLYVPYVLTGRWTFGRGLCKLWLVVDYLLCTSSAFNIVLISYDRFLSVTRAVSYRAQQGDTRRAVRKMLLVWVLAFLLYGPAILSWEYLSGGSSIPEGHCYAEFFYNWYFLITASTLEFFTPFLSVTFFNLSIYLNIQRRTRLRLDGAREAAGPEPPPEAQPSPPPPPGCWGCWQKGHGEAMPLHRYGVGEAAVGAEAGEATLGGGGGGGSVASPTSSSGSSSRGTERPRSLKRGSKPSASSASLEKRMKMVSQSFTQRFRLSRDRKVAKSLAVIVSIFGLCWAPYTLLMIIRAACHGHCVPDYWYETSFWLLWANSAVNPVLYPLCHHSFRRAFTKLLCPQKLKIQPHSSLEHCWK
Sequence of Alpha-2B adrenergic receptor (Homo sapiens) (P18089 whole entry): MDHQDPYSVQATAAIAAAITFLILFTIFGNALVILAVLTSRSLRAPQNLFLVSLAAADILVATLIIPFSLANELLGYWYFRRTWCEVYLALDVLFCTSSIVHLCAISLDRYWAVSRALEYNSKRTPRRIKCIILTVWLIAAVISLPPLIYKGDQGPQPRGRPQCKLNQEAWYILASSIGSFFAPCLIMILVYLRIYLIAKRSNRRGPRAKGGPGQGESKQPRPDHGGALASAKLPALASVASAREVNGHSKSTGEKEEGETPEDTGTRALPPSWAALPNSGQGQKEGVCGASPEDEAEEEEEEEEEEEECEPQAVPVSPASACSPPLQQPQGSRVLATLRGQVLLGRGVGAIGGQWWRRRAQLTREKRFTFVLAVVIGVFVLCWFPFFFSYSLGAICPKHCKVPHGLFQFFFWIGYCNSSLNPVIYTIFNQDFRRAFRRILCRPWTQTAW
Sequence of Alpha-1D adrenergic receptor (Homo sapiens) (P25100 whole entry): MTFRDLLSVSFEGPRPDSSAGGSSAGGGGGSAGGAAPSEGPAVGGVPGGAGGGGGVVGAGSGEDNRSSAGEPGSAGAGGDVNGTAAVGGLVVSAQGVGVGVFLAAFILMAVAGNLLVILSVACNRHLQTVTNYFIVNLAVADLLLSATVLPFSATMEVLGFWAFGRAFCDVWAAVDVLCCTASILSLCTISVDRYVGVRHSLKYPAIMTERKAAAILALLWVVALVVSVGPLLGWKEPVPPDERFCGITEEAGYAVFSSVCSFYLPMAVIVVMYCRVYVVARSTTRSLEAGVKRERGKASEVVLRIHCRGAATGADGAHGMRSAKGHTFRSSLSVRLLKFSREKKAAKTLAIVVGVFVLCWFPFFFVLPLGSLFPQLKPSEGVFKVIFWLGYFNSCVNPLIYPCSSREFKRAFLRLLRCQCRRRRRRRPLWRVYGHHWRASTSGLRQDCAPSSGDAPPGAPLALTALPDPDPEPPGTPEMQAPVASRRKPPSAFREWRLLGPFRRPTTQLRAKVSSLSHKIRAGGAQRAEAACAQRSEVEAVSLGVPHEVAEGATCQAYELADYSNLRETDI
Sequence of D(4) dopamine receptor (Homo sapiens) (P21917 whole entry): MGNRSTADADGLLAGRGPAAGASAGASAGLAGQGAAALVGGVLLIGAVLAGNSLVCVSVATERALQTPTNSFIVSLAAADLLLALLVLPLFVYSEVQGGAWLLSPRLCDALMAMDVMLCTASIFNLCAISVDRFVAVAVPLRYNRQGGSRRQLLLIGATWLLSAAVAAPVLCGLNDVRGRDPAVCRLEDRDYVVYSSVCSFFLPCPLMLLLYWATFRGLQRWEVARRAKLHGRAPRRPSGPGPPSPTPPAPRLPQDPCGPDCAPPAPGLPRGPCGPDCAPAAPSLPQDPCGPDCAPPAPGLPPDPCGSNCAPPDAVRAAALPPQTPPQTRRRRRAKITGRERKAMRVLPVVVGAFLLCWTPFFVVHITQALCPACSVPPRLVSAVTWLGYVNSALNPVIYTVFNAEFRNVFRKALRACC
Sequence of 5-hydroxytryptamine receptor 1D (Homo sapiens) (P28221 whole entry): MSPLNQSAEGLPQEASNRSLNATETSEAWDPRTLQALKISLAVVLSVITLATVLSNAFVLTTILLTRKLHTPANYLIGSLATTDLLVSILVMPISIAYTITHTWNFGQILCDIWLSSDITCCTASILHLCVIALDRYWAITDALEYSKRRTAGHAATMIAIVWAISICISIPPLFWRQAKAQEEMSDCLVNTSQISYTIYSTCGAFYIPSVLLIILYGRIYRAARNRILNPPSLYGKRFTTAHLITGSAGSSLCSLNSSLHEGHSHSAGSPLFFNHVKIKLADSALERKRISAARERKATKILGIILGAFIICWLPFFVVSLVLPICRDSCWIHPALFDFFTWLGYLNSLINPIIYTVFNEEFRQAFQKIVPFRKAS

Consider `CNC(=O)COc1cc2cc(Nc3nc(N4C[C@H](C)C[C@H](C)C4)ncc3Cl)ccc2n(C)c1=O`, for which the residual activity is 120% in data set [1]; 102% in data set [2]; 106% in [3]; 102% in [4]; 115% in [5]; 90% in data set [6]. For the same molecule, the residual activity in data set [9] is 104%; in data set [10], 97%; in data set [11] it was 83%; in data set [13] it was 111%; in data set [15], 91%; in [17], 96%. Further, the residual activity in [18] was 102%; in data set [21], 103%; in [22] it was 111%; in [24], 97%; in data set [25], 84%; in [26], 106%. Besides, the residual activity in [28] is 107%; in [33] it was 71%; in [34] it was 105%. Further, the inhibition in data set [7] is 13.7%; in data set [8], 19.9%; in [14], 6.31%; in data set [16], -4.02%; in data set [19] it was 7.35%; in data set [20], 12.7%. Also, the inhibition in data set [27] was -7.81%; in data set [29], -1.45%; in data set [30] it was -4.07%; in data set [31] it was -9.6%; in [32] it was -5.1%; in data set [35], 2.53%. Also, the activity at 10 µM in [12] is given as 105% (not active). Moreover, in data set [23], the 50% inhibitory concentration (IC50) is 43 nM (active).

As for `C[C@@H]1C[C@H](C)CN(c2ncc(Cl)c(Nc3ccc4c(c3)cc(OC(C)(C)C(=O)O)c(=O)n4C)n2)C1`, the Kd entry in data set [36] and in data set [38] was “No binding” each time. Further, the residual activity in data set [37] was 95%.
